Reference: ChEMBL document CHEMBL1201862, “PubChem BioAssay data set” (2004)
Calls of active or inactive are those of the source.

Key:
[1] = A Cell Based Secondary Assay To Explore Cytotoxicity of Compounds that Sensitize Mycobacterium Tuberculosis to Beta-Lactam Antibiotics.; assay type: functional
[2] = C. albicans growth with fluconazole, confirmation, fluorescence, retest (AID 2467); assay type: functional, cell-based
[3] = cytotoxicity in HEK-293T cells, dose response, cytotoxicity control for TCR NF-kB inhibitor project, luminescence, T-cell screen hits (AID 489026); assay type: functional, cell-based;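 further: cells exposed to compound about 14 hours before the viability readout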
[4] = control 3'UTR Renilla luciferase suppression, dose response, counter-screen for Shn3 inhibitor project, cell-based, Clone20-Shn3RL, cherry-picked (AID 624133); assay type: functional
[5] = HepG2 cell cytotoxicity, dose response, cytotoxicity control for Shn3 inhibitor project, CellTiter-Glo, cherry-picked (AID 624134); assay type: functional, cell-based
INS1 = experiment: beta cell apoptosis inhibitors, cytokine rescue, dose response, luminescence, retest (AID 449756); assay type: functional, cell-based; details: Rattus norvegicus;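 further: cell death triggered by IL-1 beta plus TNF-alpha plus IFN-gamma mixture; protective hits raise ATP signal compared with cytokine alone wells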
Cytochrome P450 1A2 = target: T1, Cytochrome P450 1A2 (Homo sapiens, UniProt P05177);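 further: PubChem cytochrome P450 panel assay, CYP1A2 panel member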
T1 sequence (P05177 whole entry): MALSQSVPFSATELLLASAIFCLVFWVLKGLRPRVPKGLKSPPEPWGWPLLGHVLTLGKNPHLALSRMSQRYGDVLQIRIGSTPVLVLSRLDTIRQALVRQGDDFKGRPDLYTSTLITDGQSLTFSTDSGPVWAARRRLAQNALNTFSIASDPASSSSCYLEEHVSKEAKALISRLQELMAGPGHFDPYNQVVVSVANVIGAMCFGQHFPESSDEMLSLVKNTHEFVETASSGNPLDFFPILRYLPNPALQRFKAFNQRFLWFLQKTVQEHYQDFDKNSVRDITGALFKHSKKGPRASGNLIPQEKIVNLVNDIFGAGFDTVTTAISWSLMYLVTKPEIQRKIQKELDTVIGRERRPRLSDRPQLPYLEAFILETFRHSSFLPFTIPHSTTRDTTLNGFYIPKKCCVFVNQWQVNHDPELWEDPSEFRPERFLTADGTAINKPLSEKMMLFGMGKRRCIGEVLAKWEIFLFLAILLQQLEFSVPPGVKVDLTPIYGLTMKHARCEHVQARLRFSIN

[6] = NIH-3T3 fibroblast cytotoxicity, dose response, cytotoxicity control, cell-based, fluorescence, Alamar Blue, secondary assay (AID 2327); assay type: functional;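 further: NIH-3T3 mouse fibroblasts cultured with fluconazole at 8 µg/mL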
[7] = Luminescence Cell-Based Dose Response HTS to Identify Inhibitors of 5'UTR Stem-Loop Driven Prion Protein mRNA Translation in H4 Neuroglioblastoma Cells. [Related pubchem assays: 1827 (Project Summary), 1813 (Primary HTS)]; assay type: functional
[8] = Luminescence-based dose response cell-based high throughput screening assay for cytotoxic compounds using the IEC-6 intestinal epithelial cell line. [Related pubchem assays: 1858 (Summary AID.), 1825 (Counterscreen.), 1907 (Confirmation screen.)]; assay type: functional
Cytochrome P450 2C19 = Cytochrome P450 2C19 (Homo sapiens, UniProt P33261); experiment: Cytochrome panel assay with activity outcomes. Panel member name: p450-cyp2c19 Compounds with AC50 equal or less than 10 uM are considered active; assay type: functional; details: read-out: AC50
[9] = target: Sphingosine 1-phosphate receptor 2 (Homo sapiens, UniProt O95136); experiment: Dose Response Cell Based Assay for Antagonists of the S1P2 Receptor. [Related pubchem assays: 856, 736 ]; assay type: functional
Cytochrome P450 3A4 = Cytochrome P450 3A4 (Homo sapiens, UniProt P08684);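 further: CYP3A4 tested as one member of a cytochrome P450 panel screen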
[10] = Shn3 3'UTR reporter inhibitors, dose response, cell-based, Clone20 osteoblasts, firefly luciferase, cherry-picked (AID 624132); assay type: functional;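 further: firefly luciferase luminescence from reporter carrying the Shn3 3'UTR in osteoblasts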
[11] = inhibitors of SNCA 5'UTR-driven reporter translation, confirmation, H4 neuroglioma cells, luminescence (AID 1988); assay type: functional, cell-based
[12] = inhibitors of firefly luciferase expression or activity, dose response, H4 neuroglioma cells, luminescence (AID 1990); assay type: functional, cell-based
[13] = inhibitors of intracellular T. cruzi replication, confirmation, NIH3T3 host cells, beta-gal luminescence (AID 2044); assay type: functional, cell-based;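 further: intracellular parasites grown in NIH/3T3 mouse fibroblasts as host cells; luminescent beta-galactosidase reporter signal from transgenic T. cruzi replicating inside host cells; inhibitors lower the luminescence signal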
[14] = cytotoxicity toward NIH3T3 fibroblasts, dose response, counter-screen, cell-based, ATP luminescence, mouse fibroblasts (AID 2010); assay type: functional;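 further: cells exposed to compound for about 90 hours before reading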
X-box-binding protein 1 = X-box-binding protein 1 (Homo sapiens, UniProt P17861); assay type: functional, Cricetulus griseus;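 further: confirmatory dose-response counter-screen serving a CHOP assay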
[15] = target: T2, Corticotropin-releasing factor receptor 2/Corticotropin-releasing factor-binding protein (Homo sapiens, UniProt P24387+Q13324); experiment: activators of CRF receptor 2 with binding protein – uHTS hits, confirmation (AID 602473); assay type: functional; details: read-out: EC50_Mean
T2 sequence (Q13324 whole entry): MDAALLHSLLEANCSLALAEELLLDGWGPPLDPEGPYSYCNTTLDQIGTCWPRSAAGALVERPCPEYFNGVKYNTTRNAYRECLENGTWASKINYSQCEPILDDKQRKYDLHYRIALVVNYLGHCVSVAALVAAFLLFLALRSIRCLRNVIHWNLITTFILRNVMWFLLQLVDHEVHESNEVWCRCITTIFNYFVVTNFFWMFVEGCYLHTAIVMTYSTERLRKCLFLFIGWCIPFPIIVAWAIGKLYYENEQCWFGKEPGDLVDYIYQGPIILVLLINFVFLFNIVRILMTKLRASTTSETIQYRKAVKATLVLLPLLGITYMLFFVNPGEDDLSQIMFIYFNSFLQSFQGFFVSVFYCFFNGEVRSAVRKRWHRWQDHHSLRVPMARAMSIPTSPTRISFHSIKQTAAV
T2 sequence (P24387 whole entry): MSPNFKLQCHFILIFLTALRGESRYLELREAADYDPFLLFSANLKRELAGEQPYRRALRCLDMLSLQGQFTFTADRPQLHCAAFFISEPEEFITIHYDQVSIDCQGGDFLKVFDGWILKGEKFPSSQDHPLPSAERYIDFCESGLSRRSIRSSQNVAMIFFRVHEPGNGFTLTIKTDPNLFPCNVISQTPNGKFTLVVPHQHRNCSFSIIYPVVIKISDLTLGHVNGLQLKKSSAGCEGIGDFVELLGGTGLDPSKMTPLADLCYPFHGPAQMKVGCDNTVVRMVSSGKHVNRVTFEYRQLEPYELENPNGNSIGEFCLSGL

[16] = Luminescence-based counterscreen assay for KLF5 inhibitors: dose response cell-based high throughput screening assay to identify cytotoxic compounds using the IEC-6 intestinal epithelial cell line. [Related pubchem assays: 1700 (Primary screen.), 1834 (Confirmation screen.), 1858 (Summary AID.), 1905 (Counterscreen.)]; assay type: functional
Hexokinase HKDC1 = target: T3, Hexokinase HKDC1 (Homo sapiens, UniProt Q2TB90); experiment: HKDC1 hexokinase inhibitors, dose response, biochemical, W721R variant (AID 504729); assay type: functional
T3 sequence (Q2TB90 whole entry): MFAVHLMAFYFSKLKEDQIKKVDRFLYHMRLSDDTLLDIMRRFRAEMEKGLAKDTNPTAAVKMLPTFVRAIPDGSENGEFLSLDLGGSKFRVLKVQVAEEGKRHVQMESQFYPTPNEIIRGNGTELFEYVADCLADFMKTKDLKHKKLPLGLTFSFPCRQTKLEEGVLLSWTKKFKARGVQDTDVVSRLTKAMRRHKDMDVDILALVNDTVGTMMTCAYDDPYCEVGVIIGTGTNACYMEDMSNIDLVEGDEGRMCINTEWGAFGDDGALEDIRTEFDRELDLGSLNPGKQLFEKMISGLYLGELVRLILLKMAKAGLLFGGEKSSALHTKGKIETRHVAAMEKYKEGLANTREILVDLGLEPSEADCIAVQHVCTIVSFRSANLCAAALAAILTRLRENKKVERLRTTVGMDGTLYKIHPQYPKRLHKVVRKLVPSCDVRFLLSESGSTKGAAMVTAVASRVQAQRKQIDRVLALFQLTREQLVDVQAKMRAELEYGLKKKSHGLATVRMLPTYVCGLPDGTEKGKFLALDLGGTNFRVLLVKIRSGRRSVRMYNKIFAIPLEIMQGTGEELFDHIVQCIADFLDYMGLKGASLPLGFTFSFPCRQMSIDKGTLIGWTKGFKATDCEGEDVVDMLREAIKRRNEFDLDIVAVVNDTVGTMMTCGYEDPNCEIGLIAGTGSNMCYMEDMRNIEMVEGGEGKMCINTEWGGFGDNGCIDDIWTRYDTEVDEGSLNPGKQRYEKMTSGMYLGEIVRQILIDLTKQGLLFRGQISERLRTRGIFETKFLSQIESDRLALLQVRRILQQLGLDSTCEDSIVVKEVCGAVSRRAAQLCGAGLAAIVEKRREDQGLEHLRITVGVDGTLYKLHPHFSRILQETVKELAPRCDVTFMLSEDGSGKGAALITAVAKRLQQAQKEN

Cytochrome P450 2D6 = Cytochrome P450 2D6 (Homo sapiens, UniProt P10635); experiment: qHTS Assay for Inhibitors and Substrates of Cytochrome P450 2D6. [Related pubchem assays: 410 ]; assay type: ADME; details: read-out: Potency
Cytochrome P450 2C9 = Cytochrome P450 2C9 (Homo sapiens, UniProt P11712); details: Potency
Streptococcus = experiment: Group A Streptococcus viability loss, dose response, counter-screen for streptokinase expression inhibitor project, luminescence, BacTiterGlo (AID 1915); assay type: functional, organism-based;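 further: potency for reduction of bacterial viability or growth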
[17] = test system: Streptococcus sp. 'group A'; experiment: growth inhibition of control SK(-) GAS strain, dose response, counter-screen for streptokinase expression inhibitor project, luminescence, kanamycin, BacTiterGlo, confirmation (AID 1900); assay type: functional, organism-based

Cytochrome P450 2C9, sequence (P11712 whole entry): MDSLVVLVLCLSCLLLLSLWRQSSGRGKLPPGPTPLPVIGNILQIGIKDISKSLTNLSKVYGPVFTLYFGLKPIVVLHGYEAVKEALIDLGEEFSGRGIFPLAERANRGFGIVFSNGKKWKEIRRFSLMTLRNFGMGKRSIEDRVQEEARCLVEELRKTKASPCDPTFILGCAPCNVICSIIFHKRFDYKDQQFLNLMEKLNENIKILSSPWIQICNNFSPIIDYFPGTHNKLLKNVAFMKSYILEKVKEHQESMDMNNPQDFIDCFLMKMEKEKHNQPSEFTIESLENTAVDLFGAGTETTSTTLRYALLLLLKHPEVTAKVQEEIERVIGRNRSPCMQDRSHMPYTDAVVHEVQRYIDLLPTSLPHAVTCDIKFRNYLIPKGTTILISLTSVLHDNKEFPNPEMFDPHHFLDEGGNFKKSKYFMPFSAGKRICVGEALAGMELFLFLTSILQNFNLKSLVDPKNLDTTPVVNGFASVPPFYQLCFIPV
Cytochrome P450 2D6, sequence (P10635 whole entry): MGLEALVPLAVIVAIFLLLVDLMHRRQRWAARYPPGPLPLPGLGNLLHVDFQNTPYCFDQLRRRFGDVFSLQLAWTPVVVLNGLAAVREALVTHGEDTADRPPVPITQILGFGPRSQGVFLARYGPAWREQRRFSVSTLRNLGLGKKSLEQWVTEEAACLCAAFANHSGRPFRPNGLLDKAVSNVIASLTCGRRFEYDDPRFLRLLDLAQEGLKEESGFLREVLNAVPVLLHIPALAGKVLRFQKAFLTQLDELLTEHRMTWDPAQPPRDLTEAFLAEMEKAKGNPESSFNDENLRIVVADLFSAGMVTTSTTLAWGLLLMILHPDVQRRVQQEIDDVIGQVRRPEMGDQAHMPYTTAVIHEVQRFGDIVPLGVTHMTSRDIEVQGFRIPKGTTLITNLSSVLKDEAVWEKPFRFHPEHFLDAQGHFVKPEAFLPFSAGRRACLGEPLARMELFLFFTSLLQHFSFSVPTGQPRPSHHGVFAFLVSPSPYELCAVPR
Cytochrome P450 2C19, sequence (P33261 whole entry): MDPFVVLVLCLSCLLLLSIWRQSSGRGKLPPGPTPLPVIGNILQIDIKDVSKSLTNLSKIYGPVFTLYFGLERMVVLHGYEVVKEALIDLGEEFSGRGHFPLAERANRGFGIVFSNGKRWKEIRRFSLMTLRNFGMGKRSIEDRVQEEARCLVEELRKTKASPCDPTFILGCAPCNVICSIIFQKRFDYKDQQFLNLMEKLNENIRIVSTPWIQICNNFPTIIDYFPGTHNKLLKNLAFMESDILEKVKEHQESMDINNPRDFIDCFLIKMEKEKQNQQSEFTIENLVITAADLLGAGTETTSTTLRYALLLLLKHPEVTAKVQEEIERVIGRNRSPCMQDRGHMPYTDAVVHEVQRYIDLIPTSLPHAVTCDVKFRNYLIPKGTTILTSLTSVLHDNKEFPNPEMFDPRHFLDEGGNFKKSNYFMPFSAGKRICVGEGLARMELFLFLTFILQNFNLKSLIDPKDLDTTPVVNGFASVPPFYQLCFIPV
X-box-binding protein 1, sequence (P17861 whole entry): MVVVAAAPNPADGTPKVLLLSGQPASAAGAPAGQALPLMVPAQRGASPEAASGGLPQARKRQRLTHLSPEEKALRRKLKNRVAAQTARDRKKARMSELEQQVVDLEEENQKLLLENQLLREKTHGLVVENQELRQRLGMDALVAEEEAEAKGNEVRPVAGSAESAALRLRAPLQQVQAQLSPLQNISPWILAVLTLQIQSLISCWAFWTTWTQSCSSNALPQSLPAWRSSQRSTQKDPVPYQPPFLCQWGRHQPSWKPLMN
Cytochrome P450 3A4, sequence (P08684 whole entry): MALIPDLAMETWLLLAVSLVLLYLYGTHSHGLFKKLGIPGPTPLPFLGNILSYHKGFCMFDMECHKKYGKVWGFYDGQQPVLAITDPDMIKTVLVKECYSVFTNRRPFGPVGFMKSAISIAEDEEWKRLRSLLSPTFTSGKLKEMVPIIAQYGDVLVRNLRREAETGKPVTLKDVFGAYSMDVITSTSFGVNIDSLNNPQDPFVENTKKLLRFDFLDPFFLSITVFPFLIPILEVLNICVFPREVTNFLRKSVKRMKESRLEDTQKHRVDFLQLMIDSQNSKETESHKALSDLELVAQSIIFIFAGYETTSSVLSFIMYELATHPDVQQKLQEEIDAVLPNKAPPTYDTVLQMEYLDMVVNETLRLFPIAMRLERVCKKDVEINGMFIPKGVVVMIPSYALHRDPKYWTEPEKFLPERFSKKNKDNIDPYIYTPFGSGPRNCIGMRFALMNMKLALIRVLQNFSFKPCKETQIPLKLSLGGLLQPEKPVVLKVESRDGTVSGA
Sphingosine 1-phosphate receptor 2, sequence (O95136 whole entry): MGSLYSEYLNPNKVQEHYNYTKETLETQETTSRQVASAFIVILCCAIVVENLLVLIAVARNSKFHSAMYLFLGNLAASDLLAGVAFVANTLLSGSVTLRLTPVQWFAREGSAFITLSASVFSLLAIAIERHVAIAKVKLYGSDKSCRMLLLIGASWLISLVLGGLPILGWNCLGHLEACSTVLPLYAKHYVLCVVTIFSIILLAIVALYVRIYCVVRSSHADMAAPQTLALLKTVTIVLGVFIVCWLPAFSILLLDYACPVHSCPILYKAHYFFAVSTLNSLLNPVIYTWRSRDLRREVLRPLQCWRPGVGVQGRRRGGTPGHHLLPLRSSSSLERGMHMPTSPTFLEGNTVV

With `COc1ccc(OC)c(-c2cc(C(=O)Nc3c(C)nn(Cc4ccccc4C)c3C)no2)c1` the CC50 [1] was 34.7 µM (active).

In the case of `Cn1c2c(c(=O)n(C)c1=O)C(C(F)(F)F)(C(F)(F)F)NC(c1ccc(Cl)cc1)=N2`, the EC50 [2] is reported as 628 nM (active), the IC50 [3] is reported as > 80 µM (inactive) and the AC50 [4] is reported as 2.03 µM (active). The AC50 [5] was 756 nM (active), the AC50 (INS1) was 983 nM (active) and the AC50 (Cytochrome P450 1A2) was 17.8 µM (inconclusive). The EC50 [6] was 2.61 µM (active), the EC50 [7] was 3.25 µM (active) and the IC50 [8] was 2.72 µM (active). The AC50 (Cytochrome P450 2C19) was 2.82 µM (inconclusive), the IC50 [9] was 3.79 µM (active) and the AC50 (Cytochrome P450 3A4) was 15.8 µM (inconclusive). For the same compound, the AC50 [10] was 1.47 µM (active), the EC50 [11] was 2.83 µM (active) and the EC50 [12] was 0.383 µM (active).

With `CCCCOc1ccc(/C=N/Nc2cc(N3CCOCC3)nc(C)n2)cc1` the CC50 [1] was > 40 µM (active), the EC50 [13] was 2.46 µM (active) and the EC50 [14] was > 60 µM (not active).

With `CC1(c2ccc(OC(F)F)cc2)NC(=O)N(/N=C/c2c(O)ccc3ccccc23)C1=O` (centres undefined) the “Absolute IC50 (XBP1)” value (X-box-binding protein 1) was 10 µM and the EC50 [15] was > 53 µM (inactive).

With `C#Cc1ccc([C@@H]2C=C(C(=O)N3CCN(Cc4ccccc4)CC3)O[C@H](OCCCCO)C2)cc1` the IC50 [3] was > 80 µM (inactive), the AC50 (INS1) was 1010 nM (active) and the EC50 [7] was 9.17 µM (active). For the same compound, the EC50 [11] was 7.64 µM (active), the IC50 [16] was > 39.8 µM (not active) and the EC50 [12] was 9.88 µM (active).

For `COC(=O)c1ccc(NC(=O)CSc2n[nH]c(-c3ccncc3)n2)cc1`, the IC50 (Hexokinase HKDC1) was 17.6 µM (active).

With `COc1cc(OC)cc([C@H](CNc2ncnc3c2ncn3[C@@H]2O[C@@H](CO)[C@H](O)[C@@H]2O)c2ccccc2C)c1` the AC50 (Cytochrome P450 2D6) was 39.8 µM (inconclusive) and the AC50 (Cytochrome P450 2C9) was 15.8 nM (inconclusive).

With `CCOC(=O)c1sc(NC(=O)c2cc3ccccc3o2)nc1C` the IC50 [16] was > 39.8 µM (not active).

With `Cn1c2ccccc2c(=O)c2c(=O)n(-c3ccc(F)cc3)c(-c3cccs3)nc21` the EC50 (Streptococcus) was 9.21 µM (active), the EC50 [17] was 9.47 µM (active) and the IC50 (Hexokinase HKDC1) was 2.72 µM (active).
